Reference: paper PMC3306375, “A Unique Modification of the Eukaryotic Initiation Factor 5A Shows the Presence of the Complete Hypusine Pathway in Leishmania donovani” (PLoS ONE, 2012)
pIC50: −log10 of the molar value.

Assays:
[1] = molecular target: T1, hDOHH (recombinant human deoxyhypusine hydroxylase) (Homo sapiens, UniProt Q9BU89); assay: [3H]hypusine release assay (periodate oxidation); type: biochemical
T1 construct: gene DOHH; hDOHH-pGEX-4T-3, E. coli BL21, GST tag removed with thrombin
T1 sequence (Q9BU89 1-302): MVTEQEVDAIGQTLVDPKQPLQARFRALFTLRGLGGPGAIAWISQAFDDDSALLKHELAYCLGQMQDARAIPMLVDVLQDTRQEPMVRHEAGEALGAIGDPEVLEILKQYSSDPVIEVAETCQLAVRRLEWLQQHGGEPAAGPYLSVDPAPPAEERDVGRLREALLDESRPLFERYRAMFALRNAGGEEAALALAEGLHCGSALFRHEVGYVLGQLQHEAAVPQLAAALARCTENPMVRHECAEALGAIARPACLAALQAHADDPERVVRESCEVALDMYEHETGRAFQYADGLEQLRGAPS

[2] = molecular target: T2, LdDOHH (recombinant L. donovani deoxyhypusine hydroxylase) (Leishmania donovani, UniProt D9IFD5); assay: [3H]hypusine release assay (periodate oxidation), Hill fit; type: biochemical; conditions: read-out: concentration that inhibited 50% of activity
T2 construct: gene DOHH; full length, 326 aa (981 bp ORF, ~36 kDa), pET30a EcoRI-HindIII, 6xHis tag printed as C-terminal (~6 kDa, kept), ~42 kDa, E. coli BL21(DE3), Ni-NTA
T2 sequence (D9IFD5 1-326): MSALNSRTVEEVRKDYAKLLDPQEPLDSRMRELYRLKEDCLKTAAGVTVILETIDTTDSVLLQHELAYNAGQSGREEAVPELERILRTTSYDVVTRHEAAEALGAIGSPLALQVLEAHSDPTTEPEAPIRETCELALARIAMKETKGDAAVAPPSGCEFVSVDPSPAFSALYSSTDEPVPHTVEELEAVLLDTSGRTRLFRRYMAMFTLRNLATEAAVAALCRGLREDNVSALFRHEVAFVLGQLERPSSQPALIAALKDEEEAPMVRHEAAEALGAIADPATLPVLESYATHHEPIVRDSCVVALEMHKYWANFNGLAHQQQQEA

| Compound | inhibition at 15 µM [1] [%] | pIC50 [2] |
| --- | --- | --- |
| N[C@@H](Cn1ccc(=O)c(O)c1)C(=O)O [mimosine] | ~22 | 4.89 |
| Cc1cc(C2CCCCC2)n(O)c(=O)c1 [ciclopirox olamine] | ~32 | 4.87 |
